Among the data in patent publication US12428415B2, “Matriptase 2 inhibitors and uses thereof” (Disc Medicine, Inc., priority 2018, dated 2025) are inhibition values, retold here.

In the assay the target is T1, Human Recombinant Matriptase 2 (Homo sapiens, UniProt Q8IU80).
T1 construct: purchased Enzo Life Sciences (an in-house preparation was also used) ALX-201-752-1
T1 sequence (Q8IU80 1-811): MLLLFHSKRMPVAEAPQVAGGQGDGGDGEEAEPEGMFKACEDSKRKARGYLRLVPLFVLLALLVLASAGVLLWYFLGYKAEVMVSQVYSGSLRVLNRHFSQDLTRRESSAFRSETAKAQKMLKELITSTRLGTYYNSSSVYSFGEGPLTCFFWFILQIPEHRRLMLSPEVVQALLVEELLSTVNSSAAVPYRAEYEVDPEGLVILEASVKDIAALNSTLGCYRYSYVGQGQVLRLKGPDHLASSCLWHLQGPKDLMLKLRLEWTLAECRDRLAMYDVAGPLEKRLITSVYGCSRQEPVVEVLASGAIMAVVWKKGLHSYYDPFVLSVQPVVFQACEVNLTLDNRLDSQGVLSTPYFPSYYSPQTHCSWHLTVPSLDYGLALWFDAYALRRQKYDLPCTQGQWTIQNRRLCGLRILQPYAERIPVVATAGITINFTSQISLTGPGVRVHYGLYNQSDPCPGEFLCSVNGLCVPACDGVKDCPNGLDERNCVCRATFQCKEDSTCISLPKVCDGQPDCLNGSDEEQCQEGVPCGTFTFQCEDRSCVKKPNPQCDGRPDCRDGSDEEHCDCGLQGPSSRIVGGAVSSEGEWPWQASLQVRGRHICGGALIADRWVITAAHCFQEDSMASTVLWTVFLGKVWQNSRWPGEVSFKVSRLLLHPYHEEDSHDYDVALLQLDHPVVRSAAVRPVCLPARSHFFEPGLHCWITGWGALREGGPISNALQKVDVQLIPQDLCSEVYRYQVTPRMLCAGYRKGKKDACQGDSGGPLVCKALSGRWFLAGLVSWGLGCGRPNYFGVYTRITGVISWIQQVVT
The assay can be described thus: Matriptase 2 fluorescence based inhibition assay, Method A (100 mM TRIS pH 9, 1 mg/mL BSA). Type of assay: biochemical. As to conditions: at 1 uM; Assay Used = A; read-out: Mar-2 % inhibition at 1 uM. The gist of the method: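 Enzyme (7 nM commercial or 15 nM in-house) preincubated 30 min with compound in 100 mM TRIS pH 9, 1 mg/mL BSA, 1% DMSO at 25° C. Boc-Gln-Ala-Arg-AMC substrate at 100 μM; fluorescence (Ex 360/Em 480 nm) read 60 min later. Screened at 1 and 10 μM; IC50 from variable-slope sigmoidal fit.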

Consider `CC1CCC(NC(=O)c2cc3ccc(C(=N)N)cc3n2Cc2ccc(C(=O)N(C)C)cc2)CC1` (stereo not drawn) [Compound I-218, 6-Carbamimidoyl-1-(4-(dimethylcarbamoyl)benzyl)-N-(4-methylcyclohexyl)-1H-indole-2-carboxamide], for which the inhibition (usually the relative decrease from the control value, in per cent) at 1 µM was in the range of 0 to 25%.

`CC1CCC(NC(=O)c2cc3ccc(C(=N)N)cc3n2Cc2ccc(C(=O)NC3CC3)cc2)CC1` (stereo not drawn) [Compound I-219, 6-Carbamimidoyl-1-(4-(cyclopropylcarbamoyl)benzyl)-N-(4-methylcyclohexyl)-1H-indole-2-carboxamide]: the inhibition at 1 µM lay within 0 to 25%.

Regarding `CNC(=O)c1ccc(Cn2c(C(=O)NC3CCC(C)CC3)cc3ccc(C(=N)N)cc32)cc1` (stereo not drawn) [Compound I-220, 6-Carbamimidoyl-1-(4-(methylcarbamoyl)benzyl)-N-(4-methylcyclohexyl)-1H-indole-2-carboxamide], the inhibition at 1 µM lay in the range of 0 to 25%.

Take `CCNC(=O)c1ccc(Cn2c(C(=O)NC3CCC(C)CC3)cc3ccc(C(=N)N)cc32)cc1` (stereo not drawn) [Compound I-221, 6-Carbamimidoyl-1-(4-(ethylcarbamoyl)benzyl)-N-(4-methylcyclohexyl)-1H-indole-2-carboxamide]: the inhibition at 1 µM fell in the range of 0 to 25%.

Take `N=C(N)c1ccc2cc(C(=O)NCC3CCCCC3)n(Cc3ccc(C(=O)NCCO)cc3)c2c1` [Compound I-222, 6-Carbamimidoyl-N-(cyclohexylmethyl)-1-(4-((2-hydroxyethyl)carbamoyl)benzyl)-1H-indole-2-carboxamide]: the inhibition at 1 µM lay in the range of 0 to 25%.

On to `CC1CCC(NC(=O)c2cc3ccc(C(=N)N)cc3n2Cc2ccc(C(=O)NCCO)cc2)CC1` (stereo not drawn) [Compound I-223, 6-Carbamimidoyl-1-(4-((2-hydroxyethyl)carbamoyl)benzyl)-N-(4-methylcyclohexyl)-1H-indole-2-carboxamide], for which the inhibition at 1 µM was 0 to 25%.

Regarding `CC1CCC(NC(=O)c2cc3ccc(C(=N)N)cc3n2Cc2ccc(C(=O)NCCN)cc2)CC1` (stereo not drawn) [Compound I-224, 1-(4-((2-Aminoethyl)carbamoyl)benzyl)-6-carbamimidoyl-N-(4-methylcyclohexyl)-1H-indole-2-carboxamide], the inhibition at 1 µM lay in the range of 0 to 25%.

As to `N=C(N)c1ccc2cc(C(=O)NCC3CCCCC3)n(Cc3ccc(C(=O)NCCN)cc3)c2c1` [Compound I-225, 1-(4-((2-Aminoethyl)carbamoyl)benzyl)-6-carbamimidoyl-N-(cyclohexylmethyl)-1H-indole-2-carboxamide], the inhibition at 1 µM lay within 0 to 25%.

Turning to `N=C(N)c1ccc2cc(C(=O)NCC3CCCCC3)n(Cc3ccc(C(N)=O)cc3F)c2c1` [Compound I-227, 6-Carbamimidoyl-1-(2-Fluoro-4-carbamoyl-benzyl)-N-(cyclohexylmethyl)-1H-indole-2-carboxamide], the inhibition at 1 µM fell in the range of 0 to 25%.

Regarding `N=C(N)c1ccc2cc(C(=O)NCC3CCCCC3)n(Cc3ccc(C(N)=O)cc3Cl)c2c1` [Compound I-228, 6-Carbamimidoyl-1-(2-Chloro-4-carbamoyl-benzyl)-N-(cyclohexylmethyl)-1H-indole-2-carboxamide], the inhibition at 1 µM is 0 to 25%.

Take `N=C(N)c1ccc2cc(C(=O)NCC3CCCCC3)n(Cc3ccc(C(N)=O)c(Cl)c3)c2c1` [Compound I-229, 6-Carbamimidoyl-1-(3-Chloro-4-carbamoyl-benzyl)-N-(cyclohexylmethyl)-1H-indole-2-carboxamide]: the inhibition at 1 µM lay in the range of 0 to 25%.

Take `N=C(N)c1ccc2cc(C(=O)NC3CCC(F)(F)CC3)n(Cc3cccc(C(N)=O)c3)c2c1` [Compound I-230, 6-Carbamimidoyl-1-(3-carbamoylbenzyl)-N-(4-difluorocyclohexyl)-1H-indole-2-carboxamide]: the inhibition at 1 µM lay within 0 to 25%.

With `N=C(N)c1ccc2cc(C(=O)NCC3CCCCC3)n(Cc3ccc(B(O)O)cc3)c2c1` [Compound I-231], the inhibition at 1 µM lay within 0 to 25%.

On to `CN(CC1CCCCC1)C(=O)c1cc2ccc(C(=N)N)cc2n1Cc1ccc(C(N)=O)cc1` [Compound I-232, 6-Carbamimidoyl-1-(4-carbamoylbenzyl)-N-(cyclohexylmethyl)-N-methyl-1H-indole-2-carboxamide], for which the inhibition at 1 µM is 0 to 25%.

Consider `N=C(N)c1ccc2cc(C(=O)N[C@H]3CC[C@H](N)CC3)n(Cc3ccc(-c4ccccc4)cc3)c2c1` [Compound I-234], for which the inhibition at 1 µM is 25 to 50%.

In the case of `N=C(N)c1ccc2cc(C(=O)NC3CCC(F)(F)CC3)n(Cc3ccc(-c4ccccc4)cc3)c2c1` [Compound I-235], the inhibition at 1 µM was in the range of 0 to 25%.

Turning to `N=C(N)c1ccc2c(Cl)c(C(=O)NCC3CCCCC3)n(Cc3ccc(-c4ccccc4)cc3)c2c1` [Compound I-236], the inhibition at 1 µM was in the range of 0 to 25%.

Regarding `CC1CCC(NC(=O)c2c(Cl)c3ccc(C(=N)N)cc3n2Cc2ccc(-c3ccccc3)cc2)CC1` (stereo not drawn) [Compound I-237], the inhibition at 1 µM fell in the range of 0 to 25%.

On to `CCc1ccc(-c2cccc(Cn3c(C(=O)NC4CCC(N)CC4)cc4ccc(C(=N)N)cc43)c2)cc1` (stereo not drawn) [Compound I-238], for which the inhibition at 1 µM lay in the range of 25 to 50%.

For `CCOc1ccc(-c2cccc(Cn3c(C(=O)N[C@H]4CC[C@H](N)CC4)cc4ccc(C(=N)N)cc43)c2)cc1` [Compound I-239], the inhibition at 1 µM lay in the range of 25 to 50%.

Take `N=C(N)c1ccc2cc(C(=O)N[C@H]3CC[C@H](N)CC3)n(Cc3cccc(Oc4ccccc4)c3)c2c1` [Compound I-240]: the inhibition at 1 µM lay within 50 to 75%.

In the case of `N=C(N)c1ccc2cc(C(=O)N[C@H]3CC[C@H](NC(=O)CCN)CC3)n(Cc3ccc(Oc4ccccc4)cc3)c2c1` [Compound I-242, N-((1r,4r)-4-(3-Aminopropanamido)cyclohexyl)-6-carbamimidoyl-1-(4-phenoxybenzyl)-1H-indole-2-carboxamide], the inhibition at 1 µM lay within 25 to 50%.

Turning to `N=C(N)c1ccc2cc(C(=O)NC3CCC(N)CC3)n(Cc3ccc(Oc4ccc(F)cc4)cc3)c2c1` (stereo not drawn) [Compound I-243], the inhibition at 1 µM lay within 50 to 75%.

Consider `N=C(N)c1ccc2cc(C(=O)NC34CC5CC(CC(O)(C5)C3)C4)n(Cc3ccc(Oc4ccc(F)cc4)cc3)c2c1` [Compound I-244], for which the inhibition at 1 µM is 25 to 50%.

Take `N=C(N)c1ccc2cc(C(=O)NC34CC5CC(CC(C5)C3)C4)n(Cc3ccc(Oc4ccc(F)cc4)cc3)c2c1` [Compound I-245]: the inhibition at 1 µM fell in the range of 25 to 50%.

In the case of `N=C(N)c1ccc2cc(C(=O)N[C@H]3CC[C@H](N)CC3)n(Cc3ccc(Oc4ccc(F)cc4)nc3)c2c1` [Compound I-246], the inhibition at 1 µM was in the range of 50 to 75%.

As to `N=C(N)c1ccc2cc(C(=O)N[C@H]3CC[C@H](N)CC3)n(Cc3ccc(Oc4ccc(Cl)cc4)cc3)c2c1` [Compound I-247], the inhibition at 1 µM lay in the range of 50 to 75%.

As for `N=C(N)c1ccc2c(Br)c(C(=O)N[C@H]3CC[C@H](N)CC3)n(Cc3ccc(Oc4ccccc4)cc3)c2c1` [Compound I-250], the inhibition at 1 µM was in the range of 25 to 50%.

Consider `N=C(N)c1ccc2c(Cl)c(C(=O)N[C@H]3CC[C@H](N)CC3)n(Cc3ccc(Oc4ccccc4)cc3)c2c1` [Compound I-251], for which the inhibition at 1 µM lay within 25 to 50%.

Take `N=C(N)c1ccc2c(N)c(C(=O)N[C@H]3CC[C@H](NC(=O)O)CC3)n(Cc3ccc(Oc4ccccc4)cc3)c2c1` [Compound I-253, ((1r,4r)-4-(3-Amino-6-carbamimidoyl-1-(4-phenoxybenzyl)-1H-indole-2-carboxamido)-cyclohexyl) carbamic Acid]: the inhibition at 1 µM lay in the range of 0 to 25%.
